Target: Escherichia coli β-glucuronidase (EcGUS) (Escherichia coli, UniProt P05804)
Assay: PNPG hydrolysis assay, Lineweaver-Burk kinetics
Assay type: biochemical

Chain of Escherichia coli β-glucuronidase (EcGUS) (P05804 whole entry): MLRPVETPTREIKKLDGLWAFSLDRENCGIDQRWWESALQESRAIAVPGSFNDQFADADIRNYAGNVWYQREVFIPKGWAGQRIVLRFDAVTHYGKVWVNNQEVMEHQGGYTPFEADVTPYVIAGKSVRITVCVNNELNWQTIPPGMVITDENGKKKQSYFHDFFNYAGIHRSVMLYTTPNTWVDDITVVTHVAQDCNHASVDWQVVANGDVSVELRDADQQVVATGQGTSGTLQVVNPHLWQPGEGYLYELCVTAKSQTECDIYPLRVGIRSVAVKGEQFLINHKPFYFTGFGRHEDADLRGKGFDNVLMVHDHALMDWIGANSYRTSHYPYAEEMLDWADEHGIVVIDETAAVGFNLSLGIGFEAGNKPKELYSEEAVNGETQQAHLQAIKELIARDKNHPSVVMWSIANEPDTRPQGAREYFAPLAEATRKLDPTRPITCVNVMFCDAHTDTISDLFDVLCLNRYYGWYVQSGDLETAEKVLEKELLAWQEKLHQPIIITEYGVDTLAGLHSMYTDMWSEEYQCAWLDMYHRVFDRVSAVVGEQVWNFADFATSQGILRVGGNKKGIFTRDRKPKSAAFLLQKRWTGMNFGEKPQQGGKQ

Clc1ccc2c(c1)C(N1CCNCC1)=Nc1ccccc1O2 [AMX, amoxapine]
PNPG hydrolysis assay, Lineweaver-Burk kinetics: both AMX and E-9 acted as uncompetitive inhibitors against EcGUS
